US20120129875A1, “SUBSTITUTED QUINAZOLINES AS FUNGICIDES” (SYNGENTA CROP PROTECTION, LLC, priority 2009, published 2012)

How the values were obtained:
Format in all cases: in vivo
[1] = test system: Pyrenophora teres (Helminthosporium teres); test: Pyrenophora teres (Helminthosporium teres) / barley / preventative (net blotch on barley); conditions: barley plants cv. Regina, inoculated 2 days after application, vs untreated control, read-out: disease control
Method: Pyrenophora teres (Helminthosporium teres)/Barley/Preventative (Net Blotch on Barley) 1-week old barley plants cv. Regina are treated with the formulated test compound in a spray chamber. The test plants are inoculated by spraying them with a spore suspension 2 days after application. The inoculated test plants are incubated at 20° C. and 95% rh and the percentage leaf area covered by disease is assessed when an appropriate level of disease appears on untreated check plants (5-7 days after application).

[2] = test system: Alternaria solani; test: Alternaria solani / tomato / preventative (Alternaria on tomato); conditions: tomato plants cv. Roter Gnom, inoculated two days after application, vs untreated control, read-out: disease control
Method: (§1) Alternaria solani/Tomato/Preventative (Alternaria on Tomato) 4-week old tomato plants cv. Roter Gnom are treated with the formulated test compound in a spray chamber. The test plants are inoculated by spraying them with a spore suspension two days after application. The inoculated test plants are incubated at 22/18° C. (day/night) and 95% rh in a greenhouse and the percentage leaf area covered by disease is assessed when an appropriate level of disease appears on untreated check plants (5-7 days after application).

[3] = test system: Plasmopara viticola; test: Plasmopara viticola / grape / preventative (grape downy mildew); conditions: grape seedlings cv. Gutedel, inoculated one day after application, vs untreated control, read-out: disease control
Method: Plasmopara viticola/Grape/Preventative (Grape Downy Mildew)
5-week old grape seedlings cv. Gutedel are treated with the formulated test compound in a spray chamber. The test plants are inoculated by spraying a sporangia suspension on their lower leaf surface one day after application. The inoculated test plants are incubated at 22° C. and 100% rh in a greenhouse and the percentage leaf area covered by disease is assessed when an appropriate level of disease appears on untreated check plants (6-8 days after application).

[4] = test system: Botryotinia fuckeliana (Botrytis cinerea); test: Botryotinia fuckeliana (Botrytis cinerea) / tomato / preventative (Botrytis on tomato); conditions: tomato plants cv. Roter Gnom, inoculated two days after application, vs untreated control, read-out: disease control
Method: as §1, with “Botryotinia fuckeliana (Botrytis cinerea)/Tomato/Preventative (Botrytis” for “Alternaria solani/Tomato/Preventative (Alternaria”, “20°” for “22/18°”, “C.” for “C. (day/night)”, “(5-6” for “(5-7”

[5] = test system: Phaeosphaeria nodorum (Septoria nodorum); test: Phaeosphaeria nodorum (Septoria nodorum) / wheat / leaf disc preventative (glume blotch); conditions: Parastagonospora nodorum, foliar, wheat leaf segments cv. Kanzler on agar, inoculated 2 days after application, vs untreated control, read-out: disease control
Method: Phaeosphaeria nodorum (Septoria nodorum)/Wheat/Leaf Disc Preventative (Glume Blotch) Wheat leaf segments cv. Kanzler are placed on agar in a multiwell plate (24-well format) and sprayed with the formulated test compound diluted in water. The leaf disks are inoculated with a spore suspension of the fungus 2 days after application. The inoculated test leaf disks are incubated at 20° C. and 75% rh under a light regime of 12 h light/12 h darkness in a climate cabinet and the activity of a compound is assessed as percent disease control compared to untreated when an appropriate level of disease damage appears in untreated check leaf disks (5-7 days after application).

[6] = test system: Mycosphaerella arachidis (Cercospora arachidicola); test: Mycosphaerella arachidis (Cercospora arachidicola) / peanut / preventative; conditions: peanut plants cv. Georgia Green, inoculated one day after application, vs untreated control, read-out: disease control
Method: Mycosphaerella arachidis (Cercospora arachidicola)/Peanut/Preventative 3-week old peanut plants cv. Georgia Green are treated with the formulated test compound in a spray chamber. The test plants are inoculated by spraying them with a spore suspension on their lower leaf surface one day after application. After an incubation period of 4 days under a plastic hood at 23° C. and 100% rh, the test plants are kept at 23° C./20° C. (day/night) and 70% rh in a greenhouse. The percentage leaf area covered by disease is assessed when an appropriate level of disease appears on untreated check plants (12-14 days after application).

SMILES: COc1cccc(Sc2cccc(-c3ncc4ccccc4n3)n2)c1 [9/2]
- pest or weed control at 200 ppm [1]: ≥ 80%
- pest or weed control at 200 ppm [2]: ≥ 80%
- pest or weed control at 200 ppm [3]: ≥ 80%

SMILES: Cc1ccc2nc(-c3ccc(C)c(-c4ccccc4)n3)ncc2c1 [11/4]
- pest or weed control at 200 ppm [1]: ≥ 80%
- pest or weed control at 200 ppm [2]: ≥ 80%

SMILES: COc1ccccc1-c1cccc(-c2ncc3ccccc3n2)n1 [2/15]
- pest or weed control at 200 ppm [2]: ≥ 80%

SMILES: Cc1ccccc1Oc1cccc(-c2ncc3ccccc3n2)n1 [4/22, 2-(6-o-tolyloxypyridin-2-yl)-quinazoline]
- pest or weed control at 200 ppm [1]: ≥ 80%
- pest or weed control at 200 ppm [2]: ≥ 80%
- pest or weed control at 200 ppm [3]: ≥ 80%

SMILES: Cc1ccc(-c2nc(-c3ncc4ccccc4n3)ccc2C)cc1 [3/69]
- pest or weed control at 200 ppm [4]: ≥ 80%
- pest or weed control at 200 ppm [1]: ≥ 80%
- pest or weed control at 200 ppm [3]: ≥ 80%

SMILES: Clc1ccccc1Sc1cccc(-c2ncc3ccccc3n2)n1 [9/8]
- pest or weed control at 200 ppm [1]: ≥ 80%
- pest or weed control at 200 ppm [2]: ≥ 80%

SMILES: Cc1ccc(-c2ncc3ccccc3n2)nc1Oc1cccc2ccccc12 [5/13]
- pest or weed control at 200 ppm [1]: ≥ 80%
- pest or weed control at 200 ppm [2]: ≥ 80%

SMILES: Cc1ccc(-c2ncc3ccccc3n2)nc1Sc1ccccc1 [9/6]
- pest or weed control at 200 ppm [1]: ≥ 80%
- pest or weed control at 200 ppm [2]: ≥ 80%

SMILES: CCc1ccccc1-c1nc(-c2ncc3ccccc3n2)ccc1C [3/37]
- pest or weed control at 200 ppm [2]: ≥ 80%
- pest or weed control at 200 ppm [3]: ≥ 80%

SMILES: COc1ccc(C)cc1-c1cccc(-c2ncc3ccccc3n2)n1 [2/38]
- pest or weed control at 200 ppm [2]: ≥ 80%
- pest or weed control at 200 ppm [5]: ≥ 80%

SMILES: Cc1cccc(-c2cccc(-c3ncc4ccccc4n3)n2)c1C [2/9]
- pest or weed control at 200 ppm [1]: ≥ 80%
- pest or weed control at 200 ppm [2]: ≥ 80%
- pest or weed control at 200 ppm [3]: ≥ 80%

SMILES: COc1ccc(F)cc1-c1cccc(-c2ncc3ccccc3n2)n1 [2/32]
- pest or weed control at 200 ppm [1]: ≥ 80%
- pest or weed control at 200 ppm [2]: ≥ 80%

SMILES: Cc1cc(F)ccc1-c1nc(-c2ncc3ccccc3n2)ccc1C [3/17]
- pest or weed control at 200 ppm [2]: ≥ 80%

SMILES: COc1cc(F)ccc1-c1cccc(-c2ncc3ccccc3n2)n1 [2/90]
- pest or weed control at 200 ppm [1]: ≥ 80%
- pest or weed control at 200 ppm [2]: ≥ 80%
- pest or weed control at 200 ppm [3]: ≥ 80%

SMILES: Cc1ccc(-c2ncc3ccccc3n2)nc1Cc1ccccc1Cl [7/19]
- pest or weed control at 200 ppm [4]: ≥ 80%
- pest or weed control at 200 ppm [3]: ≥ 80%

SMILES: Cc1ccc(-c2ncc3cc(N)ccc3n2)nc1-c1ccccc1 [11/2]
- pest or weed control at 200 ppm [3]: ≥ 80%

SMILES: Cc1cc(C)cc(-c2nc(-c3ncc4ccccc4n3)ccc2C)c1 [3/86]
- pest or weed control at 200 ppm [1]: ≥ 80%
- pest or weed control at 200 ppm [2]: ≥ 80%
- pest or weed control at 200 ppm [3]: ≥ 80%

SMILES: Cc1ccc(F)c(-c2cccc(-c3ncc4ccccc4n3)n2)c1 [2/79]
- pest or weed control at 200 ppm [3]: ≥ 80%

SMILES: CCOc1ccccc1-c1cccc(-c2ncc3ccccc3n2)n1 [2/30]
- pest or weed control at 200 ppm [2]: ≥ 80%
- pest or weed control at 200 ppm [3]: ≥ 80%

SMILES: Cc1ccc(-c2ncc3ccccc3n2)nc1Cc1ccc(Cl)cc1 [7/18]
- pest or weed control at 200 ppm [1]: ≥ 80%
- pest or weed control at 200 ppm [2]: ≥ 80%

SMILES: Cc1ccccc1-c1cccc(-c2ncc3ccccc3n2)n1 [2/4]
- pest or weed control at 200 ppm [2]: ≥ 80%

SMILES: COc1ccc(Cl)cc1-c1nc(-c2ncc3ccccc3n2)ccc1C [3/95]
- pest or weed control at 200 ppm [1]: ≥ 80%
- pest or weed control at 200 ppm [2]: ≥ 80%
- pest or weed control at 200 ppm [3]: ≥ 80%

SMILES: Cc1ccc(-c2nc(-c3ncc4ccccc4n3)ccc2C)cc1C [3/11]
- pest or weed control at 200 ppm [2]: ≥ 80%
- pest or weed control at 200 ppm [3]: ≥ 80%

SMILES: COc1cccc(F)c1-c1cccc(-c2ncc3ccccc3n2)n1 [2/70]
- pest or weed control at 200 ppm [2]: ≥ 80%
- pest or weed control at 200 ppm [3]: ≥ 80%

SMILES: COc1ccc(-c2cccc(-c3ncc4ccccc4n3)n2)c(OC)c1 [2/33]
- pest or weed control at 200 ppm [2]: ≥ 80%

SMILES: Cc1ccc(-c2ncc3ccccc3n2)nc1C [10/3]
- pest or weed control at 200 ppm [3]: ≥ 80%

SMILES: Cc1ccc(-c2ncc3ccccc3n2)nc1Sc1ccccc1Cl [9/7]
- pest or weed control at 200 ppm [1]: ≥ 80%
- pest or weed control at 200 ppm [2]: ≥ 80%

SMILES: COc1ccc(-c2cccc(-c3ncc4ccccc4n3)n2)c(C)c1 [2/66]
- pest or weed control at 200 ppm [2]: ≥ 80%
- pest or weed control at 200 ppm [5]: ≥ 80%

SMILES: Cc1ccc(Oc2nc(-c3ncc4ccccc4n3)ccc2C)cc1 [5/17]
- pest or weed control at 200 ppm [6]: ≥ 80%
- pest or weed control at 200 ppm [3]: ≥ 80%

SMILES: c1cc(Oc2ccc3ccccc3c2)nc(-c2ncc3ccccc3n2)c1 [4/10]
- pest or weed control at 200 ppm [2]: ≥ 80%
- pest or weed control at 200 ppm [3]: ≥ 80%

SMILES: CSc1ccc(Oc2nc(-c3ncc4ccccc4n3)ccc2C)cc1 [5/4]
- pest or weed control at 200 ppm [2]: ≥ 80%
- pest or weed control at 200 ppm [3]: ≥ 80%

SMILES: COc1cccc(-c2nc(-c3ncc4ccccc4n3)ccc2C)c1 [3/84]
- pest or weed control at 200 ppm [1]: ≥ 80%
- pest or weed control at 200 ppm [2]: ≥ 80%
- pest or weed control at 200 ppm [3]: ≥ 80%

SMILES: Cc1ccc(-c2ncc3ccccc3n2)nc1-c1cc(Cl)cc(Cl)c1 [3/73]
- pest or weed control at 200 ppm [1]: ≥ 80%
- pest or weed control at 200 ppm [3]: ≥ 80%

SMILES: Clc1ccccc1Oc1cccc(-c2ncc3ccccc3n2)n1 [4/23]
- pest or weed control at 200 ppm [1]: ≥ 80%

SMILES: Fc1ccc(Sc2cccc(-c3ncc4ccccc4n3)n2)cc1 [9/4]
- pest or weed control at 200 ppm [1]: ≥ 80%
- pest or weed control at 200 ppm [2]: ≥ 80%

SMILES: Cc1ccc(-c2cccc(-c3ncc4ccccc4n3)n2)c(C)c1 [2/94]
- pest or weed control at 200 ppm [2]: ≥ 80%
- pest or weed control at 200 ppm [3]: ≥ 80%

SMILES: Fc1ccc(-c2cccc(-c3ncc4ccccc4n3)n2)c(F)c1 [2/28]
- pest or weed control at 200 ppm [1]: ≥ 80%
- pest or weed control at 200 ppm [2]: ≥ 80%
- pest or weed control at 200 ppm [3]: ≥ 80%

SMILES: COc1ccc(-c2nc(-c3ncc4ccccc4n3)ccc2C)cc1 [3/70]
- pest or weed control at 200 ppm [1]: ≥ 80%
- pest or weed control at 200 ppm [2]: ≥ 80%

SMILES: Cc1ccc(-c2ncc3ccccc3n2)nc1-c1ccccc1Cl [3/46]
- pest or weed control at 200 ppm [6]: ≥ 80%
- pest or weed control at 200 ppm [2]: ≥ 80%
- pest or weed control at 200 ppm [3]: ≥ 80%

SMILES: COc1ccc(OC)c(-c2cccc(-c3ncc4ccccc4n3)n2)c1 [2/46]
- pest or weed control at 200 ppm [2]: ≥ 80%
- pest or weed control at 200 ppm [3]: ≥ 80%

SMILES: COc1ccccc1Oc1cccc(-c2ncc3ccccc3n2)n1 [4/15]
- pest or weed control at 200 ppm [1]: ≥ 80%

SMILES: Cc1ccc(-c2ncc3ccccc3n2)nc1-c1ccccc1Br [3/36]
- pest or weed control at 200 ppm [4]: ≥ 80%
- pest or weed control at 200 ppm [2]: ≥ 80%
- pest or weed control at 200 ppm [3]: ≥ 80%

SMILES: Cc1ccc(-c2ncc3ccccc3n2)nc1-c1ccc(CO)cc1 [3/139]
- pest or weed control at 200 ppm [5]: ≥ 80%

SMILES: COc1cccc(Cc2cccc(-c3ncc4ccccc4n3)n2)c1OC [6/30]
- pest or weed control at 200 ppm [5]: ≥ 80%

SMILES: Cc1ccc(-c2nc(C)c3cccc(C)c3n2)nc1-c1ccccc1 [11/16]
- pest or weed control at 200 ppm [5]: ≥ 80%

SMILES: CCc1nc(-c2cccc(Cc3ccccc3)n2)nc2ccccc12 [12/15]
- pest or weed control at 200 ppm [5]: ≥ 80%

SMILES: Fc1cc(Br)ccc1Cc1cncc(-c2ncc3ccccc3n2)c1 [6/35]
- pest or weed control at 200 ppm [5]: ≥ 80%

SMILES: Fc1ccc(Br)c(Cc2cccc(-c3ncc4ccccc4n3)n2)c1 [6/34]
- pest or weed control at 200 ppm [5]: ≥ 80%

SMILES: COc1cccc(OC)c1-c1cccc(-c2ncc3ccccc3n2)n1 [2/113]
- pest or weed control at 200 ppm [5]: ≥ 80%

SMILES: COc1cccc(OC)c1-c1nc(-c2ncc3ccccc3n2)ccc1C [3/135]
- pest or weed control at 200 ppm [5]: ≥ 80%

SMILES: Cc1cccc(-c2cccc(-c3ncc4ccccc4n3)n2)c1 [2/3]
- pest or weed control at 200 ppm [1]: ≥ 80%
- pest or weed control at 200 ppm [2]: ≥ 80%
- pest or weed control at 200 ppm [3]: ≥ 80%

SMILES: Brc1ccccc1-c1cccc(-c2ncc3ccccc3n2)n1 [2/26]
- pest or weed control at 200 ppm [6]: ≥ 80%
- pest or weed control at 200 ppm [3]: ≥ 80%

SMILES: Cc1ccc(-c2ncc3cc(Cl)ccc3n2)nc1-c1ccccc1 [11/5]
- pest or weed control at 200 ppm [1]: ≥ 80%
- pest or weed control at 200 ppm [3]: ≥ 80%

SMILES: C(=C\c1cccc(-c2ncc3ccccc3n2)n1)/c1ccccc1 [10/20]
- pest or weed control at 200 ppm [5]: ≥ 80%

SMILES: COc1ccc(F)c(-c2nc(-c3ncc4ccccc4n3)ccc2C)c1 [3/56]
- pest or weed control at 200 ppm [6]: ≥ 80%
- pest or weed control at 200 ppm [2]: ≥ 80%
- pest or weed control at 200 ppm [3]: ≥ 80%
